From ChEMBL document CHEMBL5506008, “Synthesis and biological evaluation of 1-phenyl-tetrahydro-β-carboline-based first dual PRMT5/EGFR inhibitors as potential anticancer agents” (Eur J Med Chem, 2024)

Key:
Assay type in all cases: functional
MCF7 [1] = assay: Induction of apoptosis in human MCF7 cells assessed as late apoptotic cells at 25 nM measured after 48 hrs by Annexin V-FITC staining based flow cytometry analysis (reference value: 0.14%)
MCF7 [2] = assay: Induction of cell cycle arrest in human MCF7 cells assessed as accumulation of cells at G2 phase at 50 nM incubated for 48 hrs by PI/Rnase staining based flow cytometry analysis (reference value: […]%)
MCF7 [3] = assay: Induction of apoptosis in human MCF7 cells assessed as live cells at 25 nM measured after 48 hrs by Annexin V-FITC staining based flow cytometry analysis (reference value: 99.26%)
MCF7 [4] = assay: Induction of cell cycle arrest in human MCF7 cells assessed as accumulation of cells at S phase at 25 nM incubated for 48 hrs by PI/RNase staining based flow cytometry analysis (reference value: 44.87%)
MCF7 [5] = assay: Induction of apoptosis in human MCF7 cells assessed as dead cells at 25 nM measured after 48 hrs by Annexin V-FITC staining based flow cytometry analysis (reference value: 0.02%)
MCF7 [6] = assay: Induction of apoptosis in human MCF7 cells assessed as live cells at 50 nM measured after 48 hrs by Annexin V-FITC staining based flow cytometry analysis (reference value: 99.26%)
MCF7 [7] = assay: Induction of cell cycle arrest in human MCF7 cells assessed as accumulation of cells at G2 phase at 25 nM incubated for 48 hrs by PI/Rnase staining based flow cytometry analysis (reference value: […]%)
MCF7 [8] = assay: Induction of cell cycle arrest in human MCF7 cells assessed as accumulation of cells at G1 phase at 25 nM incubated for 48 hrs by PI/RNase staining based flow cytometry analysis (reference value: 48.01%)
MCF7 [9] = assay: Induction of apoptosis in human MCF7 cells assessed as early apoptotic cells at 50 nM measured after 48 hrs by Annexin V-FITC staining based flow cytometry analysis (reference value: 0.58%)
MCF7 [10] = assay: Induction of apoptosis in human MCF7 cells assessed as early apoptotic cells at 25 nM measured after 48 hrs by Annexin V-FITC staining based flow cytometry analysis (reference value: 0.58%)
MCF7 [11] = assay: Induction of apoptosis in human MCF7 cells assessed as late apoptotic cells at 50 nM measured after 48 hrs by Annexin V-FITC staining based flow cytometry analysis (reference value: 0.14%)
MCF7 [12] = assay: Induction of cell cycle arrest in human MCF7 cells assessed as accumulation of cells at S phase at 50 nM incubated for 48 hrs by PI/RNase staining based flow cytometry analysis (reference value: 44.87%)
MCF7 [13] = assay: Induction of cell cycle arrest in human MCF7 cells assessed as accumulation of cells at G1 phase at 50 nM incubated for 48 hrs by PI/RNase staining based flow cytometry analysis (reference value: 48.01%)
MCF7 [14] = assay: Induction of apoptosis in human MCF7 cells assessed as dead cells at 50 nM measured after 48 hrs by Annexin V-FITC staining based flow cytometry analysis (reference value: 0.02%)

O=C(NC[C@H](O)CN1CCc2ccccc2C1)c1cc(NC2COC2)ncn1
Activity (MCF7 [1]): 0.83% | Activity (MCF7 [2]): 9.98% | Activity (MCF7 [3]): 96.29% | Activity (MCF7 [4]): 43.56% | Activity (MCF7 [5]): 1.47% | Activity (MCF7 [6]): 88.73% | Activity (MCF7 [7]): 0.13% | Activity (MCF7 [8]): 56.22% | Activity (MCF7 [9]): 3.79% | Activity (MCF7 [10]): 1.41% | Activity (MCF7 [11]): 4.31% | Activity (MCF7 [12]): 22.78% | Activity (MCF7 [13]): 66.11% | Activity (MCF7 [14]): 3.17%
